From US5041426A, “Immune system enhancing 3-β-d-ribofuranosylthiazolo[4,5-d]pyridimine nucleosides and nucleotides” (priority 1988, dated 1991)
Where “and” joins values, the source holds several entries; their conditions need not be identical. Identical values can stand only once.

What was measured:
Human Coronavirus = assay: Antiviral activity against human coronavirus infection in 14 day old mice; conditions: half daily doses at -24 and -18 h, of mice that died
[1] = system: Human Peripheral Blood Mononuclear Cells; assay: In vitro potentiation of IgM production by human PBMNC or B cells (ELISA); format: cell-based
Experimental: After incubation, supernatants were harvested and checked for […]

murine B16 melanoma = assay: Artificially induced pulmonary metastatic foci of B16 melanoma in mice; format: in vivo, mouse; conditions: Group 2: 100 mg/kg i.p. 24 h before tumor injection
Experimental: Test drug, compound 7, was given to groups of test animals. The groups includes a first control group, a second group given drug 24 hours prior to intravenous tumor injection, a third group given drug both 24 hours prior to intravenously tumor injection and 72 hours post tumor injection and a fourth group given drug 72 hours post tumor injection.
^a 10 week old, female C57B1/6 mice in groups of 5 each were injected
intravenously with 5 × 10^5 of B16 melanoma tumor cells. The
mice in groups 2, 3 and 4 were treated by injection of 100 mg/kg of drug

YAC-1 tumor target cells = assay: In vivo potentiation of natural killer cell activity in CBA/CaJ mice (spleen cells); conditions: for % Natural Killer Cytotoxicity: 1.68 mg/mouse i.p.
Experimental: After 1, 2, 3 and 4 days of treatment the spleens of the mice were harvested and the cytotoxic activity of the spleen cells was determined against YAC-1 tumor target cells in the above referred to ^51 Cr release assay as identified in EXAMPLE 32.
(1.68 mg/mouse) by intraperitoneal route.
Each value represents mean ±SD cytotoxic activity of three mice

YAC1 target cells [2] = assay: Natural killer cell activity in old C57BL/6J mice (in vivo treatment, spleen cells); design: species or system mouse
Experimental: For this test compound 7 was injected at a dose of 1.67 mg per mouse and 3.34 mg per mouse and after a day the natural killer cell activity of the spleen cells was determined.
i.p. route. Spleens after treatment were removed, cells were isolated and […]

YAC-1 cells = assay: In vitro potentiation of murine natural killer cell activity (mouse spleen cells, 51Cr release); format: cell-based
Experimental: After incubation the cytotoxicity of the treated and untreated cells was determined against YAC-1 cells.
^a Spleen cells from mice were treated with 0.05 mM concentration of
amino acids and 5 × 10^-5 M Mercaptoethanol. The effector cells
were then tested for their cytotoxic activity against YAC1 target cells i
4 hr ^51 Cr release assay.
^a Spleen cells from mice were incubated in the absence and presence
of various compounds. After incubation, cells were suspended in complete
medium and then their cytotoxic activity was determined against YAC1
target cells as described in the text

YAC1 target cells [3] = assay: Natural killer cell activity in nude/nude mice (in vivo treatment, spleen cells); design: species or system mouse
Source text: Compound 7 was also able to potentiate markedly the natural killer cell activity in T cell deficient (nude/nude) mice as is shown in Table 6.
^a Three mice in each group received saline or compound 7 through i.p
route, spleens were removed one day after the treatment, cells were
cells. Each value represents average ±SD cytotoxic activity of three

Banzi Virus = format: in vivo, mouse; conditions: compound 7 100 mg/kg at -24 h, saline days 0-6; of mice that died
K562 tumor cells = assay: In vitro augmentation of human natural killer cell activity (PBMNC, 51Cr release); format: cell-based; design: % Increase in Induced Natural Killer Cell Activity: concentration or dose not given beside the values
Experimental: The natural killer cell activity in human cells was also measured. In conducting these tests peripheral blood mononuculear cells (PBMNC) were isolated on Ficoll-Hypaque gradient, washed three times in Hanks and re-suspended in RPMI-1640 containing 10% human AB serum as described in Rosenberg, S. A.: Journal American Medical Association, 256:3117, 1986 and the above referred to reference to Djeu, et al. Peripheral blood mononuclear cells (PBMNC) from eleven different donors were treated with compound 7 as described in Djeu, et al. as well as Sharma, B., Odom, L. F.: Cancer Immunol. Immunother. 7.93, 1979, and Sharma, B., Odom, L. F.: Cancer Research 44:3258, 1984.
The PBMNC cells were incubated with compound 7 at 37° C. for 20 to 68 hours in a 5% CO2 humid atmosphere and after incubation the cytotoxicity was determined against K562 tumor cells.
^a Peripheral blood mononuclear cells were treated with 0.05 - 0.4 mM
concentration of compound 7 in RPM11640 containing 10% human AB serum for
20 to 68 hours. After the treatment, effector cells were tested against
K562 target cells in 4 hour ^51 Cr release assay as described in
Sharma et al. above. The data shown here represent the maximum response.
K562 target cells in 4 hour ^51 Cr release assay as previously
described above in Sharma et al. The data represent the maximum response.
Other Nucleosides and Nucleotides of the invention were tested for their activity in human natural killer cells […] as per example 33 above.

SMILES: Nc1nc2c(sc(=O)n2[C@@H]2O[C@H](CO)[C@@H](O)[C@H]2O)c(=O)[nH]1 [Compound 7, 5-Amino-3-β-D-ribofuranosylthiazolo[4,5-d]pyrimidine-2,7(6H)-dione]
- Mean Survival Time (Human Coronavirus; 50 mg/kg): 6.9 ± 2.2 days
- Mean Survival Time (Human Coronavirus; 100 mg/kg): 7.2 ± 2.0 days
- Mean Survival Time (Human Coronavirus; 200 mg/kg): 7.0 ± 1.4 days
- increase of IgM over cultures without compound 7 ([1]; SAC activated PBMNC): over a two fold increase
- increase in IgM production ([1]; up to): up to 34 fold
- Mean No. Of Metastatic Foci in Lungs (murine B16 melanoma): 8
- % Natural Killer Cytoxicity (YAC-1 tumor target cells; 0.84 mg i.p., E:T 50:1): 38 ± 7%
- % Natural Killer Cytoxicity (YAC-1 tumor target cells; 0.84 mg i.p., E:T 100:1): 48 ± 9%
- % Natural Killer Cytoxicity (YAC-1 tumor target cells; 0.84 mg i.p., E:T 150:1): 56 ± 8.5%
- increase in natural killer cell activity (YAC-1 tumor target cells; 0.84 mg to 3.36 mg per mouse): all doses of compound 7 induced a marked increase in natural killer cell activity
- % Natural Killer Cytoxicity (YAC-1 tumor target cells; 1.68 mg i.p., E:T 50:1 (Table 4)): 44 ± 8%
- % Natural Killer Cytoxicity (YAC-1 tumor target cells; 1.68 mg i.p., E:T 100:1 (Table 4)): 56 ± 12%
- % Natural Killer Cytoxicity (YAC-1 tumor target cells; 1.68 mg i.p., E:T 150:1 (Table 4)): 61 ± 14%
- % Natural Killer Cytotoxicity (YAC-1 tumor target cells; 1 day after treatment, E:T 50:1): 53 ± 5%
- % Natural Killer Cytotoxicity (YAC-1 tumor target cells; 1 day after treatment, E:T 100:1): 64 ± 5%
- % Natural Killer Cytotoxicity (YAC-1 tumor target cells; 1 day after treatment, E:T 150:1): 71 ± 9%
- % Natural Killer Cytotoxicity (YAC-1 tumor target cells; 2 days after treatment, E:T 50:1): 46 ± 9%
- % Natural Killer Cytotoxicity (YAC-1 tumor target cells; 2 days after treatment, E:T 100:1): 64 ± 5%
- % Natural Killer Cytotoxicity (YAC-1 tumor target cells; 2 days after treatment, E:T 150:1): 65 ± 7%
- % Natural Killer Cytotoxicity (YAC-1 tumor target cells; 3 days after treatment, E:T 50:1): 38 ± 6.6%
- % Natural Killer Cytotoxicity (YAC-1 tumor target cells; 3 days after treatment, E:T 100:1): 50 ± 7%
- % Natural Killer Cytotoxicity (YAC-1 tumor target cells; 3 days after treatment, E:T 150:1): 63 ± 6%
- % Natural Killer Cytotoxicity (YAC-1 tumor target cells; 4 days after treatment, E:T 50:1): 30 ± 0.1%
- % Natural Killer Cytotoxicity (YAC-1 tumor target cells; 4 days after treatment, E:T 100:1): 37 ± 1.5%
- % Natural Killer Cytotoxicity (YAC-1 tumor target cells; 4 days after treatment, E:T 150:1): 48 ± 3%
- % Natural Killer Cytoxicity (YAC-1 tumor target cells; 2.52 mg i.p., E:T 50:1): 48 ± 6.6%
- % Natural Killer Cytoxicity (YAC-1 tumor target cells; 2.52 mg i.p., E:T 100:1): 62 ± 7%
- % Natural Killer Cytoxicity (YAC-1 tumor target cells; 2.52 mg i.p., E:T 150:1): 70 ± 5%
- % Natural Killer Cytoxicity (YAC-1 tumor target cells; 3.36 mg i.p., E:T 50:1): 48 ± 4.6%
- % Natural Killer Cytoxicity (YAC-1 tumor target cells; 3.36 mg i.p., E:T 100:1): 67 ± 10%
- % Natural Killer Cytoxicity (YAC-1 tumor target cells; 3.36 mg i.p., E:T 150:1): 74 ± 6.4%
- Emax (YAC-1 tumor target cells; Mus musculus, YAC-1, 24 h, read-out: maximum response, increase in natural killer cell activity): 382%
- increase in natural killer cell activity (YAC-1 tumor target cells; single injection 1.68 mg per mouse, after 4 days): More than a two fold increase
- % Natural Killer Cell Cytotoxicity (YAC1 target cells [2]; 8 month old mice, 1.67 mg i.p., E:T 50:1): 14%
- % Natural Killer Cell Cytotoxicity (YAC1 target cells [2]; 8 month old mice, 1.67 mg i.p., E:T 100:1): 19%
- % Natural Killer Cell Cytotoxicity (YAC1 target cells [2]; 8 month old mice, 1.67 mg i.p., E:T 150:1): 23%
- % Natural Killer Cell Cytotoxicity (YAC1 target cells [2]; 8 month old mice, 3.34 mg i.p., E:T 50:1): 17%
- % Natural Killer Cell Cytotoxicity (YAC1 target cells [2]; 8 month old mice, 3.34 mg i.p., E:T 100:1): 28%
- % Natural Killer Cell Cytotoxicity (YAC1 target cells [2]; 8 month old mice, 3.34 mg i.p., E:T 150:1): 38%
- % Natural Killer Cell Cytotoxicity (YAC1 target cells [2]; 8 week old mice, 1.67 mg i.p., E:T 50:1): 15%
- % Natural Killer Cell Cytotoxicity (YAC1 target cells [2]; 8 week old mice, 1.67 mg i.p., E:T 100:1): 20%
- % Natural Killer Cell Cytotoxicity (YAC1 target cells [2]; 8 week old mice, 1.67 mg i.p., E:T 150:1): 24%
- % Natural Killer Cell Cytotoxicity (YAC1 target cells [2]; 8 week old mice, 3.34 mg i.p., E:T 50:1): 17%
- % Natural Killer Cell Cytotoxicity (YAC1 target cells [2]; 8 week old mice, 3.34 mg i.p., E:T 100:1): 27%
- % Natural Killer Cell Cytotoxicity (YAC1 target cells [2]; 8 week old mice, 3.34 mg i.p., E:T 150:1): 31%
- natural killer cell activity compared to Poly I:C (YAC-1 cells; 0.05 mM, 20 to 44 h): increased activity compared to Poly I:C
- % Natural Killer Cell Cytotoxicity (YAC-1 cells; C57BL/6J spleen cells, treatment 0 h, compound 7 at 0.05 mM): 18%
- % Natural Killer Cell Cytotoxicity (YAC-1 cells; C57BL/6J spleen cells, treatment 20 h, compound 7 at 0.05 mM): 35% and 25%
- % Natural Killer Cell Cytotoxicity (YAC-1 cells; C57BL/6J spleen cells, treatment 44 h, compound 7 at 0.05 mM): 34% and 22%
- % Natural Killer Cell Cytotoxicity (YAC-1 cells; CBA/CaJ spleen cells, treatment 0 h, compound 7 at 0.05 mM): 15% and 23%
- % Natural Killer Cell Cytotoxicity (YAC-1 cells; CBA/CaJ spleen cells, treatment 20 h, compound 7 at 0.05 mM): 34% and 62%
- % Natural Killer Cell Cytotoxicity (YAC-1 cells; CBA/CaJ spleen cells, treatment 44 h, compound 7 at 0.05 mM): 31% and 44%
- % Natural Killer Cell Cytotoxicity (YAC-1 cells; Table 21, 0.05 mM): 34.5% and 25% and 28%
- % Natural Killer Cell Cytotoxicity (YAC1 target cells [3]; 1.67 mg i.p., E:T 50:1): 43 ± 12%
- % Natural Killer Cell Cytotoxicity (YAC1 target cells [3]; 1.67 mg i.p., E:T 100:1): 56 ± 12%
- % Natural Killer Cell Cytotoxicity (YAC1 target cells [3]; 1.67 mg i.p., E:T 150:1): 61 ± 14%
- % Natural Killer Cell Cytotoxicity (YAC1 target cells [3]; 3.34 mg i.p., E:T 50:1): 38 ± 6%
- % Natural Killer Cell Cytotoxicity (YAC1 target cells [3]; 3.34 mg i.p., E:T 100:1): 56 ± 6%
- % Natural Killer Cell Cytotoxicity (YAC1 target cells [3]; 3.34 mg i.p., E:T 150:1): 61 ± 12%
- increase with respect to saline control (YAC1 target cells [3]; both doses tested): over two fold
- Mean Survival Time (Banzi Virus): 9.3 ± 1.0 days
- % Natural Killer Cell Cytotoxicity, + Compound 7 (K562 tumor cells; 0.05 - 0.4 mM, 20 to 68 h, maximum response, donors 1 to 11, one line per donor in order): 91% and 29% and 54% and 47% and 16% and 18% and 10% and 22% and 15% and 20% and 32%
- tests with an increase in the mediated potentiation (K562 tumor cells; Donor 1, Table 2b): eight of the eight tests
- tests with an increase in the mediated potentiation (K562 tumor cells; Donor 2, Table 2b): six of six tests
- mean natural killer cell cytotoxicity (K562 tumor cells; PBMNC from eleven donors pretreated with compound 7 (untreated mean 11.7%)): 32.2%
- % Natural Killer Cell Cytotoxicity (K562 tumor cells; Table 22, 0.2 mM): 10%
- % Increase in Induced Natural Killer Cell Activity (K562 tumor cells; donors 1 to 11, one line per donor in order): 1031% and 548% and 220% and 88% and 123% and 141% and 167% and 150% and 0% and 63% and 8%
- potentiation in natural killer cell cytotoxicity (K562 tumor cells; eight of eleven donors): over 100%
